Laboratory results: patent EP3928775A1, “USE OF ANTI[…] FOR TREATING THE COVID-19 DISEASE” (priority 2020, dated 2021)
Where two headings read alike, the source gives them in different places.

How the values were obtained:
SARS-CoV-2 = conditions: in-vitro study, reference 11; cited from earlier work
Covid-19 = type: in vivo, human
[1] = Patients admitted to the hospital with Covid-19, exposed vs not exposed

Row | SMILES | antiviral effects on SARS-CoV-2 (SARS-CoV-2) | risk of intubation or death (in words) (Covid-19; [1]) | risk of intubation or death (in words) (Covid-19; in vivo)
1 | Fc1ccc([C@@H]2CCNC[C@H]2COc2ccc3c(c2)OCO3)cc1 [Paroxetine] | has not be observed | – | –
2 | CN(C)CCC[C@@]1(c2ccc(F)cc2)OCc2cc(C#N)ccc21 [Escitalopram] | has not be observed | significantly and substantially reduced | –
3 | CNCCC(Oc1ccc(C(F)(F)F)cc1)c1ccccc1 (stereo not drawn) [Fluoxetine] | antiviral effects | – | significantly and substantially reduced
4 | COc1ccc(C(CN(C)C)C2(O)CCCCC2)cc1 (stereo not drawn) [Venlafaxine] | – | significantly and substantially reduced | –
